Tested on: murine leukemia L1210
Conditions: l1210 cells

Molecule | IC50, "in vitro" cytotoxic activity against murine leukemia L1210 [µg/mL]
N.N.N.N.N.N.NCCCCCCN.NCCCCCCN.O=[N+]([O-])[O-].O=[N+]([O-])[O-].O=[N+]([O-])[O-].O=[N+]([O-])[O-].[Cl-].[Cl-].[Pt+2].[Pt+2].[Pt+2] [t,t,t-[PtCl(NH3)2 H2 N(CH2)6 NH2 Pt(NH3)2 H2 N(CH2)6 NH2 PtCl(NH3)2]^+4.4NO3^-] | 0.38
t,t,t,t,t-[PtCl(NH3)2 H2 N--(CH2)6 --NH2 Pt--(NH3)2 H2 N--(CH2)6 --NH2 Pt(NH3)2 H2 N--(CH2)6 --NH2 Pt(NH3)2 H2 N--(CH2)6 --NH2 PtCl(NH3)2 ]^+8.8Cl^- | 0.3
t,t-[PtCl(NH3)2 H2 N--(CH2)6 --NH2 PtCl(NH3)2 ]^+2.2NO3^- | 2.3
